Here are results for nine compounds from US12083124B2 (Incyte Corporation, priority 2019, dated 2024).

The target of assay [1] is wild-type un-phosphorylated FGFR1 (Homo sapiens, UniProt P11362). The assay is described as follows: FGFR Enzymatic Assay (FRET peptide phosphorylation), FGFR1. Particulars: pre-incubated for 4 hours.
Assay [2] concerns the target wild-type un-phosphorylated FGFR2 (Homo sapiens, UniProt P21802). As to the kind of experiment: FGFR Enzymatic Assay (FRET peptide phosphorylation), FGFR2.
For assay [3], the target named is wild-type un-phosphorylated FGFR3 (Homo sapiens, UniProt P22607). The assay is described as follows: FGFR Enzymatic Assay (FRET peptide phosphorylation), FGFR3.
Chain of wild-type un-phosphorylated FGFR3 (P22607 23-806): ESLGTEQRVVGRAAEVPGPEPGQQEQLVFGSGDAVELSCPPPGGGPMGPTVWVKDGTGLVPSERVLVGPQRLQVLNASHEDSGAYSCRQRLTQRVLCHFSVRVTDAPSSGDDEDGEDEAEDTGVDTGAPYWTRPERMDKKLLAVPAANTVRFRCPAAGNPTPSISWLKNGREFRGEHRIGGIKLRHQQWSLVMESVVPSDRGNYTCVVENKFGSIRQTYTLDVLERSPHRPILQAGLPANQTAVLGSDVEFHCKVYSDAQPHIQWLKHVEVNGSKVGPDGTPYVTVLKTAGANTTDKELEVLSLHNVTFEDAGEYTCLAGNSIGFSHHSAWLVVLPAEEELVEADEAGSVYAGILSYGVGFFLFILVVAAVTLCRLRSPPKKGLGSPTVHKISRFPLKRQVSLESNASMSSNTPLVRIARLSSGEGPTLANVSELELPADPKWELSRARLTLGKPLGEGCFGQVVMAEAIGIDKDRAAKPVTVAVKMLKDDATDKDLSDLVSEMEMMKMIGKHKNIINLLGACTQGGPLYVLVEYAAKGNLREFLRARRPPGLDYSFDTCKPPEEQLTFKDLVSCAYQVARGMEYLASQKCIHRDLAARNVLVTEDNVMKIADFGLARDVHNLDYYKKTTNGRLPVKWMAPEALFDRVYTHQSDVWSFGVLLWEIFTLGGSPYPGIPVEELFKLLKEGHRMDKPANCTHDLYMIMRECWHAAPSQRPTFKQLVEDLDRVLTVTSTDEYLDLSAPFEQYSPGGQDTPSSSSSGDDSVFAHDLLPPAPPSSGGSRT
[4] abbreviates: read-out: FGFR1, wild-type un-phosphorylated FGFR1.
Where [5] appears, read: read-out: FGFR2, wild-type un-phosphorylated FGFR2, pre-incubated for 4 hours.
Setting [6] is: read-out: FGFR3, wild-type un-phosphorylated FGFR3, pre-incubated for 4 hours.
The mark [7] stands for this setting: FGFR1, wild-type un-phosphorylated FGFR1.

Read-outs that look alike come from different tables or passages of the source.

Chain of wild-type un-phosphorylated FGFR2 (P21802 22-821): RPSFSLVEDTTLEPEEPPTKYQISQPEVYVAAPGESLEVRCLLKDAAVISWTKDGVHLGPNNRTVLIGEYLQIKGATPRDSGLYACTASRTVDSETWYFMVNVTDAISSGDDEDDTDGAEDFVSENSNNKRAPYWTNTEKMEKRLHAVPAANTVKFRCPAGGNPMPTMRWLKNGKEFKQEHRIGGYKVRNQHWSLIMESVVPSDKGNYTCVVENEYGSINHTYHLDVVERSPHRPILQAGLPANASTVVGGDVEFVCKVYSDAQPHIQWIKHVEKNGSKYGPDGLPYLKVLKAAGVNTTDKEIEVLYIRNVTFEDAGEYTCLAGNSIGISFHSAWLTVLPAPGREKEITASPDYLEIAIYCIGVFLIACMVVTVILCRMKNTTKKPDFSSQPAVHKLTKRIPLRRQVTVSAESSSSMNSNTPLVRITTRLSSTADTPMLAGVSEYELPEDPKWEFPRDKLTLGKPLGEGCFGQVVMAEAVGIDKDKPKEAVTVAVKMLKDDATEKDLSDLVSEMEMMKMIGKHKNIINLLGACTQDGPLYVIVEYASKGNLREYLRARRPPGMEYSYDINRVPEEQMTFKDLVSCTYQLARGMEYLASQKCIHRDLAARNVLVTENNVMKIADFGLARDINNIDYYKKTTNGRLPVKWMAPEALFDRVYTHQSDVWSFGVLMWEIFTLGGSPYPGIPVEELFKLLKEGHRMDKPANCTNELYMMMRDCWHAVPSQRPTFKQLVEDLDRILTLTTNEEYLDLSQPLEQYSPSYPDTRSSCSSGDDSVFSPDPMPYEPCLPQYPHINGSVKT
Chain of wild-type un-phosphorylated FGFR1 (P11362 22-822): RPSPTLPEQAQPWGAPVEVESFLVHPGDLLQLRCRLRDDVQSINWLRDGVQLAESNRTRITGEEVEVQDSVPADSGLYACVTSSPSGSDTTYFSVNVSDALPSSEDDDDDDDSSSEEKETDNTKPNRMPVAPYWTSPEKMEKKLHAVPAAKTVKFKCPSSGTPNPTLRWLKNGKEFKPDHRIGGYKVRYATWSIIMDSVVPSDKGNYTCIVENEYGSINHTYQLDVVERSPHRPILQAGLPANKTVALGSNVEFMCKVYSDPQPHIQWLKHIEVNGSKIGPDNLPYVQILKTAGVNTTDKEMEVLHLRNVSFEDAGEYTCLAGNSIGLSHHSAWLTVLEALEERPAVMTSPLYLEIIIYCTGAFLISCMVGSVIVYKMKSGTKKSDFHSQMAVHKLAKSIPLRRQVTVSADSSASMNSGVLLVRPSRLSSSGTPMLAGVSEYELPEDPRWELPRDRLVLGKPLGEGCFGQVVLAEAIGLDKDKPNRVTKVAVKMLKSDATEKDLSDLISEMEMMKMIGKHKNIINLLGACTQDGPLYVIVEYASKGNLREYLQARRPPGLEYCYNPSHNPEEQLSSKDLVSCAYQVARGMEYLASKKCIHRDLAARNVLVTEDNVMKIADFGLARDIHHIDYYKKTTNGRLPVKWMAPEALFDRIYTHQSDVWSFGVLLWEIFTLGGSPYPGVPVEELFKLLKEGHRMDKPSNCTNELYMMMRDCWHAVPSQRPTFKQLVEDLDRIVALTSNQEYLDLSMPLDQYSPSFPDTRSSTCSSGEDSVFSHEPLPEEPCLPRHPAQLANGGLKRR

As for `COc1cc2[nH]nc(-c3ccc(C4CC(=O)N(C)C4)nc3)c2nc1-c1cccc2c1CCC2C#N` (single isomer, unassigned) [Example 76, 4-(6-Methoxy-3-(6-(1-methyl-5-oxopyrrolidin-3-yl)pyridin-3-yl)-1H-pyrazolo[4,3-b]pyridin-5-yl)-2,3-dihydro-1H-indene-1-carbonitrile], the IC50 in assay [1] (setting [4]) is 6 to 40 nM; in assay [2] (setting [5]), less than 6 nM; in assay [3] (setting [6]), less than 6 nM.

Take `COc1cc2[nH]nc(-c3ccc(C4CCN(C(=O)[C@H](C)O)CC4)nc3)c2nc1-c1cccc2c1CC(F)C2` (single isomer, unassigned) [Example 81]: the IC50 was 6 to 40 nM in assay [1] (setting [4]), less than 6 nM in assay [2] and less than 6 nM in assay [3].

For the compound `COc1cc2[nH]nc(-c3ccc(C45CC4CN(C(=O)CO)C5)nc3)c2nc1-c1cccc2c1CCC2` (single isomer, unassigned) [Example 191B, 1-(1-(5-(5-(2,3-Dihydro-1H-inden-4-yl)-6-methoxy-1H-pyrazolo[4,3-b]pyridin-3-yl)pyridin-2-yl)-3-azabicyclo[3.1.0]hexan-3-yl)-2-hydroxyethan-1-one], the figures for the IC50 in assay [1] (setting [4]), in assay [2] and in assay [3] were 6 to 40 nM, less than 6 nM and less than 6 nM, respectively.

Consider `COc1cc2[nH]nc(-c3ccc(C45CC4CN(C(=O)CO)C5)nc3)c2nc1-c1cccc2c1CCC2` (single isomer, unassigned) [Example 191C, 1-(1-(5-(5-(2,3-Dihydro-1H-inden-4-yl)-6-methoxy-1H-pyrazolo[4,3-b]pyridin-3-yl)pyridin-2-yl)-3-azabicyclo[3.1.0]hexan-3-yl)-2-hydroxyethan-1-one], for which the results for the IC50 in assay [1] (setting [4]), in assay [2] (setting [5]) and in assay [3] (setting [6]) were 6 to 40 nM, less than 6 nM and less than 6 nM, respectively.

As to `COc1cc2[nH]nc(-c3ccc(C45CC4CN(CCO)C5)nc3)c2nc1-c1cccc2c1CCC2` (single isomer, unassigned) [Example 194B, 2-(1-(5-(5-(2,3-Dihydro-1H-inden-4-yl)-6-methoxy-1H-pyrazolo[4,3-b]pyridin-3-yl)pyridin-2-yl)-3-azabicyclo[3.1.0]hexan-3-yl)ethan-1-ol], the figures for the IC50 in assay [1] (setting [4]), in assay [2] and in assay [3] were 6 to 40 nM, less than 6 nM and less than 6 nM, respectively.

Regarding `COc1cc2[nH]nc(-c3ccc(C45CC4CN(CCO)C5)nc3)c2nc1-c1cccc2c1CCC2` (single isomer, unassigned) [Example 194C, 2-(1-(5-(5-(2,3-Dihydro-1H-inden-4-yl)-6-methoxy-1H-pyrazolo[4,3-b]pyridin-3-yl)pyridin-2-yl)-3-azabicyclo[3.1.0]hexan-3-yl)ethan-1-ol], the IC50 in assay [1] (setting [4]) was 6 to 40 nM; in assay [2] (setting [5]), less than 6 nM; in assay [3] (setting [6]) it was less than 6 nM.

Turning to `COc1cc2[nH]nc(-c3cnn(Cc4ncnn4C)c3)c2nc1-c1cccc(C)c1C` [Example 3, 5-(2,3-Dimethylphenyl)-6-methoxy-3-(1-((1-methyl-1H-1,2,4-triazol-5-yl)methyl)-1H-pyrazol-4-yl)-1H-pyrazolo[4,3-b]pyridine], the IC50 in assay [1] (setting [7]) is 40 to 100 nM; in assay [2], less than 6 nM; in assay [3], less than 6 nM.

Consider `CC(=O)N1CCN(c2ccc(-c3n[nH]c4cc(OC(F)F)c(-c5cccc(C)c5C)nc34)cn2)CC1` [Example 6, 1-(4-(5-(6-(Difluoromethoxy)-5-(2,3-dimethylphenyl)-1H-pyrazolo[4,3-b]pyridin-3-yl)pyridin-2-yl)piperazin-1-yl)ethan-1-one], for which the IC50 is greater than 100 nM in assay [1] (setting [7]), less than 6 nM in assay [2] and less than 6 nM in assay [3].

On to `COc1cc2[nH]nc(-c3ccc(N4CCN(C(C)=O)CC4)nc3)c2nc1-c1cccc(C)c1C` [Example 43, 1-(4-(5-(5-(2,3-Dimethylphenyl)-6-methoxy-1H-pyrazolo[4,3-b]pyridin-3-yl)pyridin-2-yl)piperazin-1-yl)ethan-1-one], for which the values for the IC50 in assay [1] (setting [7]), in assay [2] and in assay [3] were greater than 100 nM, less than 6 nM and less than 6 nM, respectively.
